Reference: paper PMC5944028, “Nonclinical and clinical pharmacological characterization of the potent and selective cathepsin K inhibitor MIV-711” (Journal of Translational Medicine, 2018)
Where two headings read alike, the source gives them in different places.

Assays:
urine CTX-I = test: Monkey urine CTX-I, multiple doses; format: in vivo, cynomolgus monkeys (Macaca fascicularis)
Procedure: (§1) Biomarkers such as NTX-I (bone resorption) and CTX-II (cartilage degradation) are typically measured in urine. Additional experiments in which urine was collected were therefore performed. In these experiments, four cynomolgus monkeys (Macaca fascicularis) were used (Aptuit, Edinburgh, UK). The animals were healthy young females weighing 3.5–4 kg. Animals were dosed with vehicle or MIV-711 via oral gavage at a dose volume of 5 mL/kg between 7:30 and 8:30 a.m. Animals first received vehicle via oral gavage for five consecutive days. After a washout period, the animals then received MIV-711 (30 µmol/kg) via oral gavage for five consecutive days.
(§2) Urine was collected between 8–12 a.m., 12 a.m.–4 p.m. and 4 p.m.–8 a.m. on Day 1 and Day 5 of respective treatment. Biomarkers were measured in each urine sample, corrected for creatinine, and the mean value of the three samples on Day 1 and Day 5 was calculated. The effect of MIV-711 was evaluated by comparing biomarkers in urine samples collected on Day 1 and Day 5 with respective vehicle sample. [drawing 3]
(§3) The quantification of CTX-I in monkey plasma samples and human serum samples was performed using a commercially available kit (Serum CrossLaps ELISA, IDS Nordic, Herlev, Denmark). The levels of CTX-I in monkey urine samples were measured using a commercially available kit (Urine BETA CrossLaps ELISA, IDS Nordic). […]

urinary CTX-II = settings: cited from earlier work
urine CTX-II = test: Monkey urine CTX-II, multiple doses; format: in vivo, cynomolgus monkeys (Macaca fascicularis)
Procedure: as §1, §2, §3

human cathepsin H = biological target: T1, human cathepsin H (Homo sapiens, UniProt P09668); test: Enzyme assay, human cathepsin H; format: biochemical
T1 construct: purchased Athens Research Technology
T1 sequence (P09668 98-335): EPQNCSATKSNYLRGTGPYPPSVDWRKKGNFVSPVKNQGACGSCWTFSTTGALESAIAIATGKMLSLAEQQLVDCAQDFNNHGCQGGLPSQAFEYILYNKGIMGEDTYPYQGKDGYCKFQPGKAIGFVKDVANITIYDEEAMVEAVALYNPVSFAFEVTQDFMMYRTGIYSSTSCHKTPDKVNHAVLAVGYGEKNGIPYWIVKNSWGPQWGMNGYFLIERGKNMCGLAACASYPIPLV
Source text: (§4) Recombinant cathepsin K enzymes from all species were expressed in E. coli, purified and activated. Human cathepsin F and cathepsin S were expressed in Baculovirus, purified and activated. Purified human cathepsins B and H (Athens Research Technology), cathepsin L (Calbiochem), and cathepsin V (R & D Systems) were purchased.
(§5) H-D-Ala_Leu-Lys-AMC was used as the substrate in assays of cathepsin K from non-rodent species (human, dog, rabbit and guinea pig), and Z-Leu-Arg-AMC was used as the substrate in assays of cathepsin K from rodent species (mouse and rat). […]
(§6) Assays were carried out in white polystyrene 96-well plates in a final volume of 100 µL. […] Plates were read in a Fluoroskan Ascent (Thermo Labsystems, Helsinki, Finland) in kinetic mode, with excitation and emission filters of 390 and 460 nm, respectively. Rates were determined by linear regression of the fluorescence/time data in Excel. Rates were fitted by non-linear regression to either the competitive inhibition equation, with the substrate concentration fixed at the value in the assay and the KM fixed to the value previously determined, or the IC50 equation using GraphPad Prism (GraphPad, version 6, San Diego, USA) to obtain Ki or IC50 values, respectively.

human cathepsin B = biological target: T2, human cathepsin B (Homo sapiens, UniProt P07858); test: Enzyme assay, human cathepsin B; format: biochemical
T2 construct: purchased Athens Research Technology
Source text: as §4, §5, §6

[1] = system: differentiated human osteoclasts; test: Osteoclast-mediated bone resorption, human bone fragments (CTX-I release); format: cell-based
Procedure: The effect of MIV-711 on osteoclast-mediated bone resorption was evaluated using a complete kit from Cambrex Bio Science (Walkersville, MD, USA). Briefly, primary osteoclasts were generated from osteoclast precursors by incubation with RANK ligand and M-CSF in 96-well plates coated with human bone fragments, according to the instructions from the provider. After differentiation (minimum of 5 days), osteoclasts were exposed to different fixed concentrations of MIV-711 for 24 h. The resorption activity of the cultures was determined by quantifying CTX-I in the culture supernatants using a commercially available enzyme-linked immunosorbent assay (CrossLaps®, Nordic Bioscience Diagnostics A/S, Herlev, Denmark). Controls exposed to medium without inhibitor were set to 100%. CTX-I levels from MIV-711-treated cells were normalized and expressed as % of control. Curves were generated plotting the concentration of MIV-711 versus % of control. The curves were fitted to the Hill (four parameter) equation to generate an IC50 value using GraphPad Prism software. The IC50 value was defined as the concentration of MIV-711 that reduced CTX-I levels to 50% of control.

[2] = 30 µmol/kg p.o. once daily for 5 days, creatinine-corrected
[3] = single dose 30 µmol/kg p.o. (Day 1)

Compound: C#C[C@@H]1CN(C(=O)[C@H](CC(C)C)NC(=O)c2ccc(-c3nc(N4CCN(C)CC4)sc3F)cc2)[C@@H]2C(=O)CO[C@H]12 [MIV-711]
- Reduction of urinary CTX-I compared to vehicle (urine CTX-I; [2]): 93%
- Effect on urinary CTX-I compared to vehicle (urine CTX-I; [3]): immediately reduced
- Reduction of urinary CTX-II (urinary CTX-II; healthy subjects, 200 mg daily for 7 days): 72%
- Reduction of urinary CTX-II (urinary CTX-II; postmenopausal women, 100 mg once daily for 1 month): 55%
- Reduction of urinary CTX-II compared to vehicle (urine CTX-II; [2]): 71%
- Effect on urinary CTX-II compared to vehicle (urine CTX-II; [3]): unaffected
- Ki (human cathepsin H): > 10000 nM
- Ki (human cathepsin B): 1300 nM
- Concentration needed for effect on bone resorption in vitro relative to Ki [1]: around 50 fold
- IC50 ([1]; human bone fragments, 24 h, CTX-I, geometric mean): 43 nM
